Measurements from patent US10799442B2, “Compounds useful in the treatment and/or care of the skin, hair, nails, and/or mucous membranes” (LUBRIZOL ADVANCED MATERIALS, INC., priority 2015, dated 2020).

Assays:
OCT4 = assay: Modulation of stem cell markers in HEKa, Real Time PCR Arrays (OCT4 mRNA); format: cell-based, Human; details: 48 hours
Procedure: (§1) The candidate compound is evaluated for the modulation of several stem cell markers, those transcription factors regulated by miRNA145 (SOX2, OCT4, KLF4 and MYC). Gene expression profiles are analyzed by Real Time PCR Arrays using a 96-well panel for use with SYBR® Green (BioRad) to detect mRNA expression levels of stem cell markers plus three housekeeping genes, and five controls, in Human Epidermal Keratinocytes from adult (HEKa) (Cascade Biologics).
(§2) HEKa cells are seeded at 6.0×10^5 cells/well in 6-well plates and incubated in culture medium, Epilife with defined Growth Supplement (EDGS) (Cascade Biologics), for 24 hours at 37° C. in a water-saturated atmosphere of 95% air and 5% CO2. After 24 hours, the medium is removed and the cells are incubated with the synthetic peptide DD14024 at several concentrations in a culture medium. Cells are incubated with culture medium only and these provide the basal conditions. After 48 hours of treatment at 37° C. in a CO2 incubator, the cells are lysed directly in the wells, and RNA is purified following the protocol described on the RNeasy Mini kit (Qiagen) according to the manufacturer's protocol. After RNA elution, quantification and analysis of purity of RNA samples are performed with a biophotometer (Eppendorf). For each sample, 2 μg of high quality RNA is retrotranscribed with iScript Advanced (BioRad) in a final volume of 20 μl. The complete reaction mix is incubated in a thermal cycler (Eppendorf) at 42° C. for 30 minutes and the reaction is stopped at 85° C. for 5 minutes (?). Complementary DNA is amplified by qPCR in a real-time PCR thermocycler (BioRad) using SYBR Green Supermix (BioRad) in the 96-well panel for use with SYBR® Green (BioRad). SYBR Green binds to double-stranded DNA molecules and emits fluorescence which is quantified; the fluorescence intensity is proportional to the amount of the product in the PCR reaction. […] Fold change relative to the expression of the sample genes and reference genes is calculated using normalized expression (ΔΔ(Ct)) method using CFX Manager Software (BioRad). […]

p63 = assay: Activation of the pool of epidermal stem cell in reconstructed human epidermal tissue (RHE), p63 immunohistochemistry; format: cell-based; details: p63 immunofluorescence, 10 μg/ml, 24 hours
Procedure: Therefore, an increase in the expression of p63 would mean a higher regenerative potential compared to basal conditions.
The SkinEthic human tissue models (RHE) are removed from the agarose-nutrient solution in the multiwell plate immediately after arrival and are placed in a 6-well plate in which each well has previously be filled with SkinEthic Growth Medium (EPISKIN). After overnight incubation at 37° C., 5% CO2, the medium is removed. Then, the tissue models are incubated with the candidate peptide at 10 μg/ml at 37° C. and 5% CO2 for 24 hours. The tissue models are embedded in Tissue Teck OCT compound (Aname™). […]
The expression of p63 is evaluated by immunohistochemistry with a specific primary antibody and a fluorescently labelled secondary antibody. […] At the end of the incubation, slides are washed with PBS and are incubated with Alexa Fluor® 488 Goat anti-rabbit IgG (H+L) secondary antibody (Invitrogen, green fluorescence emission dye) 1 hour at room temperature in a dark humidified chamber. […]
Microscopical observations are performed with a Zeiss fluorescence microscope and photographs of each condition are taken with the associated camera. From each fluorescence image of p63, values of the product of Mean Intensity and Area are quantified and normalized by control (basal condition, treated with SkinEthic Growth Medium). […]

KLF4 = assay: Modulation of stem cell markers in HEKa, Real Time PCR Arrays (KLF4 mRNA); format: cell-based, Human; details: 48 hours
Procedure: as §1, §2

Fold induction respect to basal conditions (OCT4; 0.001 mg/ml): 1.65 ± 0.13 | Fold induction respect to basal conditions (OCT4; 0.005 mg/ml): 1.81 ± 0.28 | Fold induction respect to basal conditions (OCT4; 0.01 mg/ml): 1.71 ± 0.29 | Fold induction respect to basal conditions (p63; 1 experiment): 1.63 ± 0.16 | Fold induction respect to basal conditions (p63; mean of four experiments): 2.11 ± 0.23 | Fold induction respect to basal conditions (KLF4; 0.001 mg/ml): 1.66 ± 0.18 | Fold induction respect to basal conditions (KLF4; 0.005 mg/ml): 2.42 ± 0.50 | Fold induction respect to basal conditions (KLF4; 0.01 mg/ml): 1.71 ± 0.40
Substance: Ac-QEMRMQ-OH [DD14024, Ac-Gln-Glu-Met-Arg-Met-Gln-OH]
